Measured values reported in US20060127980A1, “Human excitatory amino acid transporter-2 gene promoter and uses thereof” (priority 2003, published 2006).
Starred links: 1 amine or outer side, 2 acyl side, 3 side chain; linkers in the order of their positions; H or OH if unused. Positions of bridges follow the written chain, without caps; N, C: chain ends. Non-standard residues stand in square brackets, D forms with d. Residues, ends and D or L forms follow the SMILES beside them. Chains are numbered I, II in the order given. Actinocin(9to1) = Cc1c2oc3c(C)ccc(C(=O)[*:1])c3nc-2c(C(=O)[*:2])c(N)c1=O; NMeV = CN[C@H](C(=O)O)C(C)C; Sar = CNCC(=O)O

How the values were obtained:
[1] = system: rat astrocytes; conditions: Zelenaia et al., 2000; cited from earlier work
[2] = system: hEAAT2 promoter; test: hEAAT2 promoter luciferase assay of agents in PHFA (FIG. 10); type: cell-based, human; conditions: PHFA passage #3; 10 μM
Protocol: (§1) FIG. 10. Effect of various agents on hEAAT2 promoter activity on primary human fetal astrocytes (PHFA). A: ceftriaxone; B: amoxicillin; C: chloramphenicol; D: thiamphenicol; E: vancomycin; F: glycine; G: glutamate; H: DMSO; I: dibutyryl cAMP. PHFA (passage #3) were seeded at 1×10^5 cells/35-mm plate. Twenty-four h later cells were untreated (CON) or received the indicated compound at a final concentration of 10 μM. Forty-eight h later the cells were transfected with a FL pGL3/EAAT2 luciferase reporter construct (5 μg) plus a pSVβGalactosidase construct (1 μg) using the calcium phosphate precipitation method (Su et al. 2003, Proc. Natl. Acad. Sci. USA 100:1955-1960). After an additional 48 h, cell lysates were prepared and luciferase activity was determined using the Luciferase Assay System Kit (Promega, E1501) and luminescence determined using a luminometer (Turner Designs, TD20/20) (Su et al. 2003, Proc. Natl. Acad. Sci. USA 100:1955-1960). Data presented are the average of 3 independent plates±S.D. Qualitatively similar results were obtained in 2 additional experiments.
as §1, with “Identification of Agents that Modulate hEAAT2 Promoter Activity. FIGS. 10-12 show the effects” for “FIG. 10. Effect”, “in PHFA (FIG. 10), PHFA-Im (FIG. 11) and H4 glioma (FIG. 12) cells. In the studies shown in FIG. 10,” for “on primary human fetal astrocytes (PHFA). A: ceftriaxone; B: amoxicillin; C: chloramphenicol; D: thiamphenicol; E: vancomycin; F: glycine; G: glutamate; H: DMSO; I: dibutyryl cAMP.”

[3] = system: hEAAT2 promoter; test: hEAAT2 promoter luciferase assay of agents in PHFA-Im (FIG. 11); type: cell-based, human; conditions: 10 μM
Protocol: as §1, with “FIG. 11.” for “FIG. 10.”, “activity in immortalized” for “activity on”, “astrocytes (PHFA-Im).” for “astrocytes (PHFA).”, “cAMP. PHFA-Im is a human telomerase-immortalized clone of primary human fetal astrocytes. PHFA-Im cells” for “cAMP. PHFA (passage #3)”, “at 5×10^4” for “at 1×10^5”
as §1, with “The effects” for “FIG. 10. Effect”, “these same” for “various”, “also were examined in two other cell lines to confirm the generality of the findings. […] PHFA-Im is a cell line developed from a clonal isolate of a” for “on hEAAT2 promoter activity on”, “astrocyte immortalized by transformation with the reverse transcriptase subunit of human telomerase. PHFA-Im cells” for “astrocytes (PHFA). A: ceftriaxone; B: amoxicillin; C: chloramphenicol; D: thiamphenicol; E: vancomycin; F: glycine; G: glutamate; H: DMSO; I: dibutyryl cAMP. PHFA (passage #3)”, “5×10^4” for “1×10^5”

[4] = system: hEAAT2 promoter; test: hEAAT2 promoter luciferase assay of agents in H4 glioma cells (FIG. 12); type: cell-based, human; conditions: H4 malignant glioma cells; 10 μM
Protocol: as §1, with “12.” for “10.”, “in H4” for “on primary”, “malignant glioma cells.” for “fetal astrocytes (PHFA).”, “H4 is a rare clone of malignant glioma cells that support hEAAT2 promoter activity. H4 cells” for “PHFA (passage #3)”, “5×10^4” for “1×10^5”
as §1, with “H4, the third cell line examined, is a rare clone” for “FIG. 10. Effect”, “malignant glioma cells that support” for “various agents on”, “activity. In the studies shown in FIG. 12, H4 cells” for “activity on primary human fetal astrocytes (PHFA). A: ceftriaxone; B: amoxicillin; C: chloramphenicol; D: thiamphenicol; E: vancomycin; F: glycine; G: glutamate; H: DMSO; I: dibutyryl cAMP. PHFA (passage #3)”, “5×10^4” for “1×10^5”

SMILES | toxicity [1] | hEAAT2 promoter activity [2] | hEAAT2 promoter activity [3] | hEAAT2 promoter activity [4]
Cc1c2oc3c(C)ccc(C(=O)N[C@@H]4C(=O)N[C@H](C(C)C)C(=O)N5CCC[C@H]5C(=O)N(C)CC(=O)N(C)[C@@H](C(C)C)C(=O)O[C@@H]4C)c3nc-2c(C(=O)N[C@@H]2C(=O)N[C@H](C(C)C)C(=O)N3CCC[C@H]3C(=O)N(C)CC(=O)N(C)[C@@H](C(C)C)C(=O)O[C@@H]2C)c(N)c1=O [actinomycin D] (I: T[dV]P[Sar][NMeV] / II: T[dV]P[Sar][NMeV]; ester I:1-I:C, II:1-II:C; linker I:N-II:N via Actinocin(9to1)) | toxic |  |  | 
CO/N=C(\C(=O)N[C@@H]1C(=O)N2C(C(=O)O)=C(CSc3nc(=O)c(=O)[nH]n3C)CS[C@H]12)c1csc(N)n1 [ceftriaxone] |  | potent stimulators | potent stimulators | potent stimulators
O=C(N[C@H](CO)[C@H](O)c1ccc([N+](=O)[O-])cc1)C(Cl)Cl [chloramphenicol] |  | potent stimulators | potent stimulators | potent stimulators
CS(=O)(=O)c1ccc([C@@H](O)[C@@H](CO)NC(=O)C(Cl)Cl)cc1 [thiamphenicol] |  | potent stimulators | potent stimulators | potent stimulators
